# Literature values in patent publication US20020115211A1, “A METHOD FOR IN VITRO MATURATION OF HUMAN GAMETES” (MEDI-CULT A/S, priority 1998, published 2002).
# Tested on: immature human gametes
# Conditions: presence in the culture medium; recent research
substance,measurement,value
insulin: Component of the SSR media additives,effect on the chance for successful pregnancy,negative effect
